In article PMC4929566, “The metabolome of [2-^14C](−)-epicatechin in humans: implications for the assessment of efficacy, safety, and mechanisms of action of polyphenolic bioactives” (Scientific Reports, 2016):
Where two headings read alike, the source gives them in different places.

How the values were obtained:
[1] = Metabolite profiling and pharmacokinetics in plasma (targeted HPLC-MS2); format: in vivo, humans; conditions: for AUC0-24h / Cmax / T1/2 (elimination half-life) / Tmax / AUC(0-t) / half-life: human plasma, oral 60 mg 14C-EC, mean ± SEM n=8; for AUC(0-t): read-out: AUC0-24h; for half-life: read-out: T1/2 (elimination half-life) (converted); for Identification as human EC metabolite: human plasma and urine, radiolabeled tracer
Method: (§1) The study was a single-center, open-label, and non-randomized study with two distinct elements: a run-in phase to establish a more defined dietary background of dietary flavanols and procyanidins and the subsequent ^14C-EC ADME study (Fig. 1B). Participants (n = 12) were enrolled in the run-in phase (day –17 to day –4) and asked to supplement their daily diet for 14 days with a commercially available flavanol-containing cocoa-based drink (250 mg cocoa flavanols; 40 mg of EC). This was followed by a 4-day period (day –4 to 0) of a low-flavanol diet. One day (study day -1) prior to the initialization of the ^14C-EC ADME study, all eligible participants were accommodated under controlled conditions at a metabolic research facility (Covance Clinical Pharmacology Inc., Wisconsin) until completion of the study. Based on the compliance of the first part of the study, 8 participants were selected to participate in the ^14C-EC ADME study. During the ^14C-EC ADME study (Fig. 1B.), volunteers received a low-flavanol, standardized high-fiber diet, and were encouraged to maintain an adequate level of hydration (water ad libitum). Volunteers were asked to fast for 8 h before the initiation of the study and for at least 4 h after the intake of the ^14C-EC test drink (water ad libitum). Venous blood samples were taken using Vacutainer collection tubes, containing potassium EDTA at 0 h (just prior to ^14C-EC ingestion), and at 0.25, 0.5, 1, 1.5, 2, 2.5, 3, 4, 6, 8, 10, 12, 16, 24, 36, and 48 h after test drink consumption. Plasma was obtained by whole blood centrifugation at 2000 × g for 15 min at 5 °C, separated into aliquots and stored at −80 °C until analysis. All urine and feces from the time just prior to the consumption of the test drink were collected at different time intervals for radioactivity and metabolite profiling. Clinical parameters and laboratory evaluations of participants were assessed at screening, on study day –1, and after completing the study, as detailed in Supplementary Methods.
(§2) Samples were processed as described previously[18] and analyzed by HPLC-MS^2 in conjunction with an on-line HPLC-radioactivity monitor as described in SI Materials and Methods. Identification of metabolites involved comparing the retention time with authentic standards and MS^2 fragmentation patterns (Supplementary Methods). Quantification of metabolites in urine was based on HPLC radioactivity peak area (limit of quantification: 10^3 dpm). Due to the low levels of radioactivity, quantification in plasma was based on targeted HPLC-MS^2 using standard curves obtained with authentic standards (Supplementary Methods).
Data are expressed as mean values ± standard error, or as otherwise specified. Pharmacokinetic parameters were calculated using non-compartmental analysis with WinNonlin (Pharsight Corporation, Version 5.2).
5-20% acetonitrile in 0.1 % formic acid. Supplementary Table S2 provides details of HPLC retention times and the m/z values that were monitored.
Supplementary Table S2. Detection of (−)-epicatechin metabolites. HPLC retention times and selected reaction monitoring ions used for the HPLC-MS analysis of (−)-epicatechin metabolites in plasma. […]
Structurally related (-)-epicatechin metabolites in humans: assessment using de novo chemically synthesized authentic standards. Free Radic Biol Med 52, 1403- […]
3 Borges, G. et al. Bioavailability of multiple components following acute ingestion of a polyphenol-rich juice drink. Mol Nutr Food Res 54 Suppl 2, S268-277, […]
4 Stalmach, A. et al. Absorption, metabolism, and excretion of green tea flavan-3-ols in humans with an ileostomy. Mol Nutr Food Res 54, 323-334,

[2] = Metabolite profiling and quantification in urine (HPLC-MS2 with on-line radioactivity detector); format: in vivo, humans; conditions: human, oral 207 μmol 14C-EC, mean ± SEM n=8; for Metabolite present in urine, collection period 4–8 h / Metabolite present in urine, collection period 8–12 h / Metabolite present in urine, collection period 12–24 h / Metabolite present in urine, collection period 24–48 h / Metabolite present in urine, collection period 0–4 h: – = not detected
Method: as §1, §2
HPLC-MS identifications of radiolabeled [2-14C](−)-epicatechin metabolites in urine Urine was analyzed with radioactivity and mass spectrometry (MS) detection using a 250 mm x 4.6 mm i.d. 5 µm Luna Phenyl-Hexyl column (Phenomenex, Macclesfield, UK) […]
formic acid. Metabolite identification was performed by 1) co-chromatography of metabolites with reference compounds and a comparison of their MS fragmentation patterns 2, 2) by comparing m/z fragmentation patterns with earlier in-house observed […]
patterns to databases of metabolites reported in earlier polyphenol feeding studies5-7.
Supplementary Table S2, which also provides information on the MSI MI (Metabolite Standards Initiative – Metabolites Identification) level, a confidence level for identification where level 1 stands for fully elucidated (i.e., by comparison with a standard) and level 2 for a well characterized, but not yet fully structurally elucidated 8

Row | Compound | AUC0-24h [1] [µM·h] | Cmax [1] [nM] | T1/2 (elimination half-life) [1] [h] | Tmax [1] [h] | Metabolite present in urine, collection period 0–48 h [2] [μ mol] | Metabolite present in urine, collection period 4–8 h [2] [μ mol] | Metabolite present in urine, collection period 8–12 h [2] [μ mol] | Metabolite present in urine, collection period 12–24 h [2] [μ mol] | Metabolite present in urine, collection period 0–4 h [2] [μ mol] | other results
1 | 5-(Hydroxyphenyl)-γ-hydroxyvaleric acid-sulfate | 1.49 ± 0.475 | 56 ± 9 | 7.6 ± 3.5 | 5.9 ± 0.6 | – | – | – | – | – | –
2 | 5-(Phenyl)-γ-valerolactone-O-sulfate-O-glucuronide | 1.02 ± 0.481 | 39 ± 9 | 6.4 ± 2.2 | 5.5 ± 1.1 | – | – | – | – | – | –
3 | O=C(O)CNC(=O)c1cccc(O)c1 [3′-Hydroxyhippuric acid] | – | – | – | – | 16.9 ± 5.8 | 1.6 ± 0.5 | 2.8 ± 0.7 | 7.0 ± 2.9 | – | Metabolite present in urine, collection period 24–48 h [2]: 5.5 ± 2.3 μ mol
4 | COc1cc([C@H]2Oc3cc(O)cc(O)c3C[C@H]2O)ccc1OS(=O)(=O)O [3′-O-Methyl-(−)-epicatechin-4′-sulfate] | 0.203 ± 0.069 | 53 ± 13 | 2.3 ± 0.6 | 0.9 ± 0.1 | 0.7 ± 0.2 | – | – | – | 0.7 ± 0.2 | –
5 | COc1cc([C@H]2Oc3cc(O)cc(OS(=O)(=O)O)c3C[C@H]2O)ccc1O [3′-O-Methyl-(−)-epicatechin-5-sulfate, 3′-O-methyl-(−)-epicatechin-5-sulfate] | – | – | – | – | 9.6 ± 1.2 | 1.8 ± 0.3 | 0.4 ± 0.1 | 0.3 ± 0.2 | 7.1 ± 0.9 | Cmax ([1]; male): 240 ± 24 nM; AUC(0-t) ([1]; male): 0.915 ± 0.178 µM·h; half-life ([1]; male): 1.6 ± 0.1 h; Tmax ([1]; male, read-out: Tmax): 0.9 ± 0.1 h
6 | COc1cc([C@H]2Oc3cc(OS(=O)(=O)O)cc(O)c3C[C@H]2O)ccc1O [3′-O-Methyl-(−)-epicatechin-7-sulfate, 3′-O-methyl-(−)-epicatechin-7-sulfate] | 1.03 ± 0.26 | 159 ± 20 | 2.4 ± 0.2 | 1.1 ± 0.1 | 1.2 ± 0.3 | 0.3 ± 0.1 | – | – | 0.9 ± 0.2 | –
7 | COc1cc([C@H]2Oc3cc(O)cc(O[C@@H]4O[C@H](C(=O)O)[C@@H](O)[C@H](O)[C@H]4O)c3C[C@H]2O)ccc1O [3′-O-methyl(−)-epicatechin-5-O-β-D-glucuronide] | 0.025 ± 0.01 | 23 ± 5 | 1.3 ± 0.2 | 0.8 ± 0.2 | – | – | – | – | – | Relative amount (% of total) of individual SREM in plasma ([1]; human, 1 h post 14C-EC intake, Fig. 4A): < 3%
8 | COc1cc([C@H]2Oc3cc(O[C@@H]4O[C@H](C(=O)O)[C@@H](O)[C@H](O)[C@H]4O)cc(O)c3C[C@H]2O)ccc1O [3′-O-methyl(−)-epicatechin-7-O-β-D-glucuronide] | 0.077 ± 0.031 | 39 ± 5 | 1.3 ± 0.3 | 0.9 ± 0.1 | – | – | – | – | – | –
9 | COc1ccc([C@H]2Oc3cc(O)cc(OS(=O)(=O)O)c3C[C@H]2O)cc1O [4′-O-Methyl-(−)-epicatechin-5-sulfate] | 0.128 ± 0.045 | 53 ± 14 | 1.4 ± 0.3 | 0.9 ± 0.1 | 1.1 ± 0.3 | 0.1 ± 0.1 | – | – | 1.0 ± 0.2 | –
10 | O=C1CCC(Cc2ccc(O[C@@H]3O[C@H](C(=O)O)[C@@H](O)[C@H](O)[C@H]3O)c(O)c2)O1 (stereo partly shown) [5-(3′-Hydroxyphenyl)-γ-valerolactone-4′-O-glucuronide] | 1.33 ± 0.396 | 52 ± 9 | 4.4 ± 1.3 | 6.1 ± 0.8 | – | – | – | – | – | –
11 | O=C1CCC(Cc2ccc(O)c(O[C@@H]3O[C@H](C(=O)O)[C@@H](O)[C@H](O)[C@H]3O)c2)O1 (stereo partly shown) [5-(4′-Hydroxyphenyl)-γ-valerolactone-3′-O-glucuronide] | – | – | – | – | – | – | – | – | – | Cmax ([1]; male): 125 ± 30 nM; AUC(0-t) ([1]; male): 1.91 ± 0.787 µM·h; half-life ([1]; male): 3.1 ± 0.6 h; Tmax ([1]; male, read-out: Tmax): 6.8 ± 0.8 h
12 | O=C(O)CCC(O)Cc1cccc(OS(=O)(=O)O)c1 (stereo not shown) [5-(Phenyl)-4-hydroxyvaleric acid-3′-sulfate] | – | – | – | – | 2.9 ± 1.6 | 1.9 ± 1.0 | 0.3 ± 0.2 | 0.7 ± 0.7 | – | –
13 | O=C1CCC(Cc2cccc(OS(=O)(=O)O)c2)O1 (stereo not shown) [5-(Phenyl)-γ-valerolactone-3′-sulfate] | – | – | – | – | 4.7 ± 2.7 | 2.4 ± 1.1 | 1.2 ± 0.9 | 1.0 ± 0.8 | 0.1 ± 0.1 | –
14 | O=C(O)[C@H]1O[C@@H](Oc2cc(O)c3c(c2)O[C@H](c2ccc(O)c(O)c2)[C@H](O)C3)[C@H](O)[C@@H](O)[C@@H]1O [(−)-Epicatechin-7-O-glucuronide, (−)-epicatechin-7-O-β-D-glucuronide] | 0.045 ± 0.014 | 22 ± 7 | 1.7 ± 0.3 | 0.8 ± 0.1 | – | – | – | – | – | –
15 | O=S(=O)(O)Oc1cc(O)c2c(c1)O[C@H](c1ccc(O)c(O)c1)[C@H](O)C2 [(−)-Epicatechin-7-sulfate] | 0.043 ± 0.016 | 19 ± 3 | 2.2 ± 0.4 | 1.1 ± 0.2 | – | – | – | – | – | –
16 | O=S(=O)(O)Oc1ccc([C@H]2Oc3cc(O)cc(O)c3C[C@H]2O)cc1O [(−)-epicatechin-4′-sulfate, reference compound] | – | – | – | – | – | – | – | – | – | Identification as human EC metabolite [1]: could not be identified by us
17 | O=C(O)[C@H]1O[C@@H](Oc2ccc([C@H]3Oc4cc(O)cc(O)c4C[C@H]3O)cc2O)[C@H](O)[C@@H](O)[C@@H]1O [(−)-epicatechin-4′-β-D-glucuronide, reference compound] | – | – | – | – | – | – | – | – | – | Identification as human EC metabolite [1]: could not be identified by us
18 | O=C(O)CNC(=O)c1ccccc1 [Hippuric acid] | – | – | – | – | 26.4 ± 7.1 | 7.2 ± 3.9 | 5.6 ± 2.6 | 7.1 ± 2.1 | 0.6 ± 0.4 | Metabolite present in urine, collection period 24–48 h [2]: 5.9 ± 4.1 μ mol
19 | Hydroxyphenylacetic acid-sulfate | – | – | – | – | 2.9 ± 1.1 | 0.9 ± 0.5 | 0.8 ± 0.6 | 1.2 ± 0.4 | – | –
